Data set [1] relates to B16-BL6 melanoma cells. The experiment in a line: B16-BL6 melanoma pulmonary metastasis model, intraperitoneal treatment. The data set is classed as in vivo, C57B1/6 mice. As to conditions: for T/C (ratio of lung metastases of treated vs. control animals) / angiogenesis inhibitory activity (comparison in words) / IC50 (50% inhibition of surface metastasis) / Mean Number of Pulmonary Metastases / % Inhibition: i.p.; for T/C (ratio of lung metastases of treated vs. control animals): 0.4 mmol/kg in 2.8% DMSO; for T/C (ratio of lung metastases of treated vs. control animals) / % Inhibition: from 72 hours after tumor cells, day 14; for angiogenesis inhibitory activity (comparison in words): B16-BL6 metastasis studies; for IC50 (50% inhibition of surface metastasis): varying doses, average of three experiments, 7-R-(+) tested once at each dose, up to 0.8 mmol/kg; for anti-tumor activity (summary in words): summary of Tables 1 and 2, at the tested doses; for Mean Number of Pulmonary Metastases / % Inhibition: 1.0 ml of 5.0 mg/ml in 2.8% DMSO; for Mean Number of Pulmonary Metastases: four times a day from 72 hours after tumor cells, surface lung metastases counted day 14; for % Inhibition: versus DMSO control, p < 0.01. On the procedure: B16-BL6 melanoma cells (5×10^4) were injected intravenously into the tail veins of C57B1/6 mice. The mice were given intraperitoneal (i.p.) treatments of either 1.0 ml 2.8% DMSO alone (control), 1.0 ml (5.0 mg/ml 2.8% DMSO) 2-phthalimidinoglutaric acid (EM-138) in DMSO, or 1.0 ml (5.0 mg/ml 2.8%) 2-methyl-2-phthalimidinoglutaric acid (2-Me-EM-138) in DMSO four times a day beginning 72 hours after injection of the tumor cells. Fourteen days after tumor cell inoculation, the lungs were removed from the mice and the surface pulmonary metastases were counted.
B16-BL6 melanoma cells (5×10^4) were injected intravenously into the tail veins of C57B1/6 mice. The mice were given intraperitoneal (i.p.) treatments of either 1.0 ml 2.8% DMSO alone (control), 1.0 ml (5.0 mg/ml) DL-2-methyl-2-phthalimidinoglutaric acid (racemate) in 2.8% DMSO, 1.0 ml (5.0 mg/ml) (R)-(+)-2-methyl-2-phthalimidinoglutaric acid (JS-2-13-P1) in 2.8% DMSO, or (S)-(−)-2-methyl-2-phthalimidinoglutaric acid (JS-2-13-P2) in 2.8% DMSO four times a day beginning 72 hours after injection of the tumor cells. Fourteen days after tumor cell inoculation, the lungs were removed from the mice and the surface pulmonary metastases were counted.
B16-BL6 melanoma cells (5×10^4) were injected intravenously into the tail veins of C57B1/6 mice. The mice were given intraperitoneal (i.p.) treatments of one of the following solutions four times a day beginning 72 hours after injection of the tumor cells. [drawing 4] • 1.0 ml of thalidomide in 2.8% DMSO • 1.0 ml of 3′-hydroxy-2-phthalimidinoglutaric acid in 2.8% DMSO (compound 5a) • 1.0 ml of 4′-hydroxy-2-phthalimidinoglutaric acid in 2.8% DMSO (compound 5b) • 1.0 ml of 2-phthalimidinoglutaric acid (EM-138) in 2.8% DMSO (compound 5c) • 1.0 ml of DL-2-methyl-2-phthalimidinoglutaric acid (racemate) in 2.8% DMSO (compound 7) • 1.0 ml of (R)-(+)-2-methyl-2-phthalimidinoglutaric acid (JS-2-13-P1) in 2.8% DMSO (compound 7-R-(+)) • 1.0 ml of (S)-(−)-2-methyl-2-phthalimidinoglutaric acid (JS-2-13-P2) in 2.8% DMSO (compound 7-S-(−))
A dose of 0.4 mmol/kg was used for each compound tested. Fourteen days after tumor cell inoculation, the lungs were removed from the mice and the surface pulmonary metastases were counted.
This experiment was repeated at varying doses. The in the following table represent the average values for three of the experiment.

In data set [2] the test system is B16-BL6 melanoma cells. The experiment in a line: B16-BL6 melanoma pulmonary metastasis model, oral (gavage) treatment. The format is in vivo, C57B1/6 mice. On the procedure:
B16-BL6 melanoma cells (5×10^4) were injected intravenously into the tail veins of C57B1/6 mice. Three days later, the mice received a gavage treatment with 0.8 mmol/kg of 2-phthalimidinoglutaric acid (EM-138). The mice received either a single treatment, five treatments on alternate days, or one treatment every day for eleven days. Fourteen days after tumor cell inoculation, the lungs were removed from the mice and the surface pulmonary metastases were counted. The values shown are the mean of 5 mice per group. The bars on the graph represent the standard deviation.
B16-BL6 melanoma cells (5×10^4) were injected intravenously into the tail veins of C57B1/6 mice. The mice were given a single oral treatment of 2-phthalimidinoglutaric acid (EM-138) of 0.8 mmol/kg. The treatment was initiated one day prior to tumor cells or on day 1, 2, 3, 5, or 7 after tumor cells. Fourteen days after tumor cell inoculation, the lungs were removed from the mice and the surface pulmonary metastases were counted. The values shown are the mean of 5 mice per group. The bars on the graph represent the standard deviation.

The next data set can be described thus: Resistance to hydrolysis. The data set is classed as physicochemical. As to conditions: compared with thalidomide.
Data set [3] can be described thus: Racemization of enantiomers. The format is physicochemical.
In data set [4] the test system is vascular endothelial cell proliferation. As to conditions: endothelial versus tumor cell proliferation in vitro; cited from earlier work.

Marks after values point to notes of the source that are not given here.

In the case of `O=C(O)CCC(C(=O)O)N1C(=O)c2ccccc2C1O` (centres unmarked) [Compound 5a, 3′-hydroxy-2-phthalimidinoglutaric acid], the “T/C (ratio of lung metastases of treated vs. control animals)” value in the data set on B16-BL6 melanoma cells [1] amounted to 0.95.
Take `C[C@](CCC(=O)O)(C(=O)O)N1Cc2ccccc2C1=O` [7-S-(−), (S)-(−)-2-methyl-2-phthalimidinoglutaric acid]: in the data set with B16-BL6 melanoma cells [1], the “angiogenesis inhibitory activity (comparison in words)” value was “greater angiogenesis inhibitory activity than does the (R) isomer”, the “T/C (ratio of lung metastases of treated vs. control animals)” value was found to be 0.15 and the “IC50 (50% inhibition of surface metastasis)” value is on record as 0.1^a mmol/kg.
`C[C@@](CCC(=O)O)(C(=O)O)N1Cc2ccccc2C1=O` [7-R-(+), (R)-(+)-2-methyl-2-phthalimidinoglutaric acid]: in the data set with B16-BL6 melanoma cells [1], the “T/C (ratio of lung metastases of treated vs. control animals)” value was determined as 0.7, the “IC50 (50% inhibition of surface metastasis)” value is “No activity^b” and the “anti-tumor activity (summary in words)” value is on record as “little or no activity”.
For the compound `O=C1CCC(N2C(=O)c3ccccc3C2=O)C(=O)N1` (centres unmarked) [Thalidomide, thalidomide, reference compound], in the data set with B16-BL6 melanoma cells [1], the “T/C (ratio of lung metastases of treated vs. control animals)” value was 0.9 and the “IC50 (50% inhibition of surface metastasis)” value was 3.2^a mmol/kg.
For orientation: % Inhibition means the percentage by which the read-out fell short of the control. In the case of `CC(CCC(=O)O)(C(=O)O)N1Cc2ccccc2C1=O` (racemic) [Compound 7, DL-2-methyl-2-phthalimidinoglutaric acid], in the data set on B16-BL6 melanoma cells [1], the “angiogenesis inhibitory activity (comparison in words)” value is listed as “as potent an inhibitor of angiogenesis as EM-138”, the “T/C (ratio of lung metastases of treated vs. control animals)” value was 0.25, the “Mean Number of Pulmonary Metastases” value is 84 and the “% Inhibition” value was found to be 60%. Further, in the data set on B16-BL6 melanoma cells [1], the “IC50 (50% inhibition of surface metastasis)” value is 0.2^a mmol/kg and the “anti-tumor activity (summary in words)” value was “considerably greater inhibitory activity than thalidomide”.
As to `O=C(O)CCC(C(=O)O)N1Cc2ccccc2C1=O` (centres unmarked) [Compound 5c, 2-phthalimidinoglutaric acid], the inhibition of metastasis entry with B16-BL6 melanoma cells [2] (dose of 0.8 mmol/kg/day) is on record as “greater than 90%”. Moreover, the inhibition of metastasis in the data set with B16-BL6 melanoma cells [2] (single dose) turned out to be 50%. Also, in the data set with B16-BL6 melanoma cells [1], the “T/C (ratio of lung metastases of treated vs. control animals)” value was 0.2, the “Mean Number of Pulmonary Metastases” value worked out at 85, the “% Inhibition” value worked out at 60% and the “IC50 (50% inhibition of surface metastasis)” value was 0.2^a mmol/kg. Besides, the “anti-tumor activity (summary in words)” value with B16-BL6 melanoma cells [1] was “considerably greater inhibitory activity than thalidomide”. Further, the resistance to hydrolysis result in the data set “Resistance to hydrolysis” was “relatively resistant to hydrolysis”. Besides, in data set [3], the racemization of enantiomers entry is on record as “readily racemize”.
Regarding `O=C(O)CCC(C(=O)O)N1Cc2c(O)cccc2C1=O` (centres unmarked) [Compound 5b, 4′-hydroxy-2-phthalimidinoglutaric acid], in the data set on B16-BL6 melanoma cells [1], the “T/C (ratio of lung metastases of treated vs. control animals)” value was determined as 0.9.
On to `CO[C@@H]1[C@H](OC(=O)NC(=O)CCl)CC[C@]2(CO2)[C@H]1[C@@]1(C)O[C@@H]1CC=C(C)C` [AGM-1470], for which the “half-maximal inhibition of endothelial cell proliferation at lower concentration than tumor cell proliferation” value in data set [4] is 4 logs.

Values taken from patent US7112602B2, “Methods of treating undesired angiogenesis with 2-methyl-EM-138” (The Children's Medical Center Corporation, priority 1998, dated 2006).
